Several values for one entry are separate records, joined by “and”; a condition that tells them apart may be missing. Identical values can stand only once.
Assays:
[1] = Cytotoxicity assay (CellTiter-Glo, 72 h), Jurkat; assay type: cell-based; conditions: human, Jurkat cells (T lymphoma), raw data (replicates)
In short: (§1)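 Luminescent ATP read-out (CellTiter-Glo) quantified surviving cells after a 72 h incubation with 2-fold diluted compounds in 0.5% DMSO, added 4 h post-seeding at 1000 cells/well.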

T lymphoma Jurkat cells = assay: Cytotoxicity assay (CellTiter-Glo, 72 h), Jurkat; assay type: cell-based; conditions: raw data (replicates)
In short: as §1

[2] = Cytotoxicity assay (CellTiter-Glo, 72 h), SKOV-3; assay type: cell-based, human; conditions: human, raw replicate data, read-out: SKOV3 viability (%)
In short: as §1

[3] = system: human ovarian adenocarcinoma SKOV-3 cells; assay: Cytotoxicity assay (CellTiter-Glo, 72 h), SKOV-3; assay type: cell-based; conditions: raw replicate data
In short: as §1

[4] = Cytotoxicity assay (CellTiter-Glo, 72 h), MESO-1; assay type: cell-based; conditions: human, MESO-1 malignant pleural mesothelioma cells, raw replicate data, read-out: MESO1 viability (%)
In short: as §1

[5] = system: malignant pleural mesothelioma MESO-1 cells; assay: Cytotoxicity assay (CellTiter-Glo, 72 h), MESO-1; assay type: cell-based; conditions: raw replicate data
In short: as §1

[6] = system: Jurkat, SKOV-3 and MESO-1 cells; assay: Cytotoxicity assay, statements for all tested cell lines together; assay type: cell-based; conditions: Jurkat, SKOV-3 and MESO-1 cells, 72 h
In short: as §1

CO[C@@H]1/C=C/C=C/[C@@H](C)C[C@@H](C)C(=O)C[C@H](O)/C(C)=C/[C@@H](C)C(=O)C[C@@H]([C@H](C)C[C@@H]2CC[C@@H](O)[C@H](OC)C2)OC(=O)[C@@H]2CCCCN2C(=O)C(=O)[C@]2(O)O[C@@H](CC[C@H]2C)C1 [Compound 9]
viability at 72 h, 9.53674e-05 uM ([1]; conc 9.53674e-5 uM): 97.1% | viability at 72 h, 0.000190735 uM ([1]; conc 0.000190735 uM): 100% | viability at 72 h, 0.00038147 uM ([1]; conc 0.00038147 uM): 106% | viability at 72 h, 0.000762939 uM ([1]; conc 0.000762939 uM): 102% | viability at 72 h, 0.00152588 uM ([1]; conc 0.00152588 uM): 106% | viability at 72 h, 0.00305176 uM ([1]; conc 0.00305176 uM): 97.7% | viability at 72 h, 0.00610352 uM ([1]; conc 0.00610352 uM): 105% | viability at 72 h, 0.012207 uM ([1]; conc 0.012207 uM): 92.7% | viability at 72 h, 0.0244141 uM ([1]; conc 0.0244141 uM): 93.7% | viability at 72 h, 0.0488281 uM ([1]; conc 0.0488281 uM): 86% | viability at 72 h, 0.0976562 uM ([1]; conc 0.0976562 uM): 74.9% | viability at 72 h, 0.195312 uM ([1]; conc 0.195312 uM): 60.9% | viability at 72 h, 0.390625 uM ([1]; conc 0.390625 uM): 51.4% | viability at 72 h, 0.78125 uM ([1]; conc 0.78125 uM): 42.4% | viability at 72 h, 1.5625 uM ([1]; conc 1.5625 uM): 36.2% | viability at 72 h, 3.125 uM ([1]; conc 3.125 uM): 29.7% | viability at 72 h, 6.25 uM ([1]; conc 6.25 uM): 31.2% | viability at 72 h, 12.5 uM ([1]; conc 12.5 uM): 29% | viability at 72 h, 25 uM ([1]; conc 25 uM): 27.4% | viability at 72 h, 50 uM ([1]; conc 50 uM): 18.3% | Jurkat viability (%) (T lymphoma Jurkat cells; conc 9.53674e-5 uM): 97.9% and 103.8% | Jurkat viability (%) (T lymphoma Jurkat cells; conc 0.000190735 uM): 101.0% and 98.6% | Jurkat viability (%) (T lymphoma Jurkat cells; conc 0.00038147 uM): 107.1% and 103.4% | Jurkat viability (%) (T lymphoma Jurkat cells; conc 0.000762939 uM): 103.5% and 104.2% | Jurkat viability (%) (T lymphoma Jurkat cells; conc 0.00152588 uM): 104.2% and 102.7% | Jurkat viability (%) (T lymphoma Jurkat cells; conc 0.00305176 uM): 97.4% and 96.9% | Jurkat viability (%) (T lymphoma Jurkat cells; conc 0.00610352 uM): 101.3% and 103.8% | Jurkat viability (%) (T lymphoma Jurkat cells; conc 0.012207 uM): 97.2% and 97.8% | Jurkat viability (%) (T lymphoma Jurkat cells; conc 0.0244141 uM): 92.4% and 98.8% | Jurkat viability (%) (T lymphoma Jurkat cells; conc 0.0488281 uM): 88.4% and 81.5% | Jurkat viability (%) (T lymphoma Jurkat cells; conc 0.0976562 uM): 82.2% and 81.2% | Jurkat viability (%) (T lymphoma Jurkat cells; conc 0.195312 uM): 57.1% and 58.0% | Jurkat viability (%) (T lymphoma Jurkat cells; conc 0.390625 uM): 50.5% and 48.6% | Jurkat viability (%) (T lymphoma Jurkat cells; conc 0.78125 uM): 40.3% and 41.8% | Jurkat viability (%) (T lymphoma Jurkat cells; conc 1.5625 uM): 36.4% and 39.4% | Jurkat viability (%) (T lymphoma Jurkat cells; conc 3.125 uM): 29.6% and 29.1% | Jurkat viability (%) (T lymphoma Jurkat cells; conc 6.25 uM): 28.9% and 29.5% | Jurkat viability (%) (T lymphoma Jurkat cells; conc 12.5 uM): 26.0% and 28.1% | Jurkat viability (%) (T lymphoma Jurkat cells; conc 25 uM): 26.9% and 28.7% | Jurkat viability (%) (T lymphoma Jurkat cells; conc 50 uM): 17.4% and 19.3% | viability at 72 h, 9.53674e-05 uM ([2]; SKOV-3 cells (ovarian adenocarcinoma), conc 9.53674e-5 uM): 103% | viability at 72 h, 0.000190735 uM ([2]; SKOV-3 cells (ovarian adenocarcinoma), conc 0.000190735 uM): 105% | viability at 72 h, 0.00038147 uM ([2]; SKOV-3 cells (ovarian adenocarcinoma), conc 0.00038147 uM): 97.1% | viability at 72 h, 0.000762939 uM ([2]; SKOV-3 cells (ovarian adenocarcinoma), conc 0.000762939 uM): 101% | viability at 72 h, 0.00152588 uM ([2]; SKOV-3 cells (ovarian adenocarcinoma), conc 0.00152588 uM): 102% | viability at 72 h, 0.00305176 uM ([2]; SKOV-3 cells (ovarian adenocarcinoma), conc 0.00305176 uM): 97.4% | viability at 72 h, 0.00610352 uM ([2]; SKOV-3 cells (ovarian adenocarcinoma), conc 0.00610352 uM): 105% | viability at 72 h, 0.012207 uM ([2]; SKOV-3 cells (ovarian adenocarcinoma), conc 0.012207 uM): 99.1% | viability at 72 h, 0.0244141 uM ([2]; SKOV-3 cells (ovarian adenocarcinoma), conc 0.0244141 uM): 97.2% | viability at 72 h, 0.0488281 uM ([2]; SKOV-3 cells (ovarian adenocarcinoma), conc 0.0488281 uM): 90.5% | viability at 72 h, 0.0976562 uM ([2]; SKOV-3 cells (ovarian adenocarcinoma), conc 0.0976562 uM): 92.1% | viability at 72 h, 0.195312 uM ([2]; SKOV-3 cells (ovarian adenocarcinoma), conc 0.195312 uM): 75% | viability at 72 h, 0.390625 uM ([2]; SKOV-3 cells (ovarian adenocarcinoma), conc 0.390625 uM): 80.5% | viability at 72 h, 12.5 uM ([2]; SKOV-3 cells (ovarian adenocarcinoma), conc 12.5 uM): 60.9% | viability at 72 h, 25 uM ([2]; SKOV-3 cells (ovarian adenocarcinoma), conc 25 uM): 70.4% | viability at 72 h, 50 uM ([2]; SKOV-3 cells (ovarian adenocarcinoma), conc 50 uM): 52.8% | viability at 72 h, 0.78125 uM ([2]; SKOV-3 ovarian adenocarcinoma cells, conc 0.78125 uM): 70.1% | viability at 72 h, 1.5625 uM ([2]; SKOV-3 ovarian adenocarcinoma cells, conc 1.5625 uM): 73.8% | viability at 72 h, 3.125 uM ([2]; SKOV-3 ovarian adenocarcinoma cells, conc 3.125 uM): 65.5% | viability at 72 h, 6.25 uM ([2]; SKOV-3 ovarian adenocarcinoma cells, conc 6.25 uM): 70.2% | SKOV3 viability (%) ([3]; conc 9.53674e-5 uM): 105.9% and 100.3% | SKOV3 viability (%) ([3]; conc 0.000190735 uM): 101.8% and 104.0% | SKOV3 viability (%) ([3]; conc 0.00038147 uM): 103.8% | SKOV3 viability (%) ([3]; conc 0.000762939 uM): 99.7% and 104.2% | SKOV3 viability (%) ([3]; conc 0.00152588 uM): 108.5% and 105.8% | SKOV3 viability (%) ([3]; conc 0.00305176 uM): 98.1% | SKOV3 viability (%) ([3]; conc 0.00610352 uM): 101.6% and 106.7% | SKOV3 viability (%) ([3]; conc 0.012207 uM): 93.5% and 95.1% | SKOV3 viability (%) ([3]; conc 0.0244141 uM): 95.8% and 102.2% | SKOV3 viability (%) ([3]; conc 0.0488281 uM): 93.6% and 92.4% | SKOV3 viability (%) ([3]; conc 0.0976562 uM): 93.2% and 87.5% | SKOV3 viability (%) ([3]; conc 0.195312 uM): 79.8% and 81.0% | SKOV3 viability (%) ([3]; conc 0.390625 uM): 82.0% and 78.5% | SKOV3 viability (%) ([3]; conc 0.78125 uM): 67.6% and 71.1% | SKOV3 viability (%) ([3]; conc 1.5625 uM): 76.5% and 72.9% | SKOV3 viability (%) ([3]; conc 3.125 uM): 73.0% and 75.2% | SKOV3 viability (%) ([3]; conc 6.25 uM): 70.8% and 73.4% | SKOV3 viability (%) ([3]; conc 12.5 uM): 62.7% and 63.5% | SKOV3 viability (%) ([3]; conc 25 uM): 72.9% | SKOV3 viability (%) ([3]; conc 50 uM): 57.2% and 56.0% | viability at 72 h, 9.53674e-05 uM ([4]; conc 9.53674e-5 uM): 101% | viability at 72 h, 0.000190735 uM ([4]; conc 0.000190735 uM): 93.5% | viability at 72 h, 0.00038147 uM ([4]; conc 0.00038147 uM): 95% | viability at 72 h, 0.000762939 uM ([4]; conc 0.000762939 uM): 93.4% | viability at 72 h, 0.00152588 uM ([4]; conc 0.00152588 uM): 100% | viability at 72 h, 0.00305176 uM ([4]; conc 0.00305176 uM): 92.4% | viability at 72 h, 0.00610352 uM ([4]; conc 0.00610352 uM): 95.6% | viability at 72 h, 0.012207 uM ([4]; conc 0.012207 uM): 89.8% | viability at 72 h, 0.0244141 uM ([4]; conc 0.0244141 uM): 91% | viability at 72 h, 0.0488281 uM ([4]; conc 0.0488281 uM): 82.4% | viability at 72 h, 0.0976562 uM ([4]; conc 0.0976562 uM): 85.7% | viability at 72 h, 0.195312 uM ([4]; conc 0.195312 uM): 74.8% | viability at 72 h, 0.390625 uM ([4]; conc 0.390625 uM): 75.8% | viability at 72 h, 0.78125 uM ([4]; conc 0.78125 uM): 66.3% | viability at 72 h, 1.5625 uM ([4]; conc 1.5625 uM): 71.8% | viability at 72 h, 3.125 uM ([4]; conc 3.125 uM): 65.2% | viability at 72 h, 6.25 uM ([4]; conc 6.25 uM): 69.4% | viability at 72 h, 12.5 uM ([4]; conc 12.5 uM): 63.3% | viability at 72 h, 25 uM ([4]; conc 25 uM): 63.9% | viability at 72 h, 50 uM ([4]; conc 50 uM): 53% | MESO1 viability (%) ([5]; conc 9.53674e-5 uM): 98.3% and 100.4% | MESO1 viability (%) ([5]; conc 0.000190735 uM): 90.7% and 98.1% | MESO1 viability (%) ([5]; conc 0.00038147 uM): 97.4% and 97.9% | MESO1 viability (%) ([5]; conc 0.000762939 uM): 94.8% and 94.3% | MESO1 viability (%) ([5]; conc 0.00152588 uM): 99.1% and 102.8% | MESO1 viability (%) ([5]; conc 0.00305176 uM): 92.2% and 94.8% | MESO1 viability (%) ([5]; conc 0.00610352 uM): 96.7% and 92.3% | MESO1 viability (%) ([5]; conc 0.012207 uM): 91.8% | MESO1 viability (%) ([5]; conc 0.0244141 uM): 99.0% and 94.1% | MESO1 viability (%) ([5]; conc 0.0488281 uM): 84.2% and 90.6% | MESO1 viability (%) ([5]; conc 0.0976562 uM): 83.8% and 83.9% | MESO1 viability (%) ([5]; conc 0.195312 uM): 74.7% and 76.1% | MESO1 viability (%) ([5]; conc 0.390625 uM): 72.2% and 72.1% | MESO1 viability (%) ([5]; conc 0.78125 uM): 64.8% and 71.9% | MESO1 viability (%) ([5]; conc 1.5625 uM): 69.3% and 70.3% | MESO1 viability (%) ([5]; conc 3.125 uM): 69.9% | MESO1 viability (%) ([5]; conc 6.25 uM): 70.9% and 68.1% | MESO1 viability (%) ([5]; conc 12.5 uM): 63.1% and 61.3% | MESO1 viability (%) ([5]; conc 25 uM): 65.5% and 63.8% | MESO1 viability (%) ([5]; conc 50 uM): 61.4% and 51.1% | Effect on cell viability, in words [6]: slightly suppressed the cell viabilities
